The values below come from patent US9233127B2, “Compositions and methods for CXCR4 signaling and umbilical cord blood stem cell engraftment” (University of Virginia Patent Foundation, priority 2012, dated 2016).

In one test the test system is UCB T-cells. Kind of test: Cytoplasmic IFN-γ and NFAT1 expression in UCB T-cells during mitogen stimulation. Format: cell-based, human. Conditions: for percentages of IFN-γ-expressing UCB T-cells: exogenous cytokine added during mitogen stimulation, IFN-γ 100 or 1,000 U/ml, 24 h. As to the method: To further test expression and regulation, exogenous IFN-γ was added (100 or 1,000 U/ml) during mitogen stimulation and cytoplasmic IFN-γ expression in UCB T-cells was measured.

A further test has as its system NFAT1. Kind of test: NFAT1 protein and miR-184 in UCB CD4 T-cells stimulated with αCD3/CD28 plus exogenous IFN-γ. It counts as cell-based, human. The note with it: for NFAT1 protein expression: CD3/28 stimulation 24 h, absence of monocytes, 1000 U/ml. As to the method:
FIG. 22A-B—Rescue of NFAT1 protein in UCB CD4 T-cells during primary stimulation in the presence of exogenous IFN-γ. UCB CD4 T-cells were stimulated with αCD3/CD28 for 24 h with 1000 U/ml of exogenous rh-IFN-γ. Cell lysates were harvested and Western Blot was probed for NFAT1 and β-actin.

The test system of test [1] is murine BMNCs and CFU-GM progenitor cells. Kind of test: Migration of murine BMNCs and CFU-GM progenitors to SDF-1 gradient after cationic peptide priming. It counts as cell-based. As to the method: FIG. 8A-B—A) BM mononuclear cell and B) CFU-GM migration in response to an SDF-1 gradient after priming with LL-37 or hBD-2. Values are fold increases of migrated cells compared to media alone.
FIG. 17A-B—Cationic peptides released from granulocytes enhance responsiveness of HSPCs to SDF-1 gradient. […] Values are the fold increases of migrated cells compared to media alone. M, media alone; SDF-1 (L), 50 ng/ml; SDF-1 (H), 300 ng/ml; C3a, 1 μg/ml. * P<0.05 as compared with SDF-1 (50 ng/ml) alone. The data shown represent the combine results from four independent experiments carried out in triplicate per group (n=12).
We also evaluated the effect of complement fragment 5a (C5a). […] After leaving the BM, granulocytes undergo degranulation in response to plasma C5a and secrete cationic peptides, such as cathelicidin (LL-37) and β-defensin-2 (hBD-2). […] It was hypothesized that this response may be affected by the distribution of membrane lipids by cationic peptides. […] Direct confocal analysis of CXCR4 and lipid raft colocalization in the presence or absence of cationic peptides confirmed these findings.

A further test has as its system CD34+ cells. Kind of test: Transwell chemotaxis of CD34+ cells to an SDF-1 gradient (priming). Format: cell-based, human. As to the method: (§1) FIG. 11A-B—Effect of SLP and its components on chemotaxis of CD34^+ cells. Panel A: Chemotaxis of BM CD34^+ cells towards medium alone (control), SDF-1 low (10 ng/mL) alone, SLP (combined SLP from three patients), SDF-1 low+SLP, and SDF-1 high (300 ng/mL). Data are pooled from quadruplicate samples from three independent experiments. *p<0.00001. Panel B: Chemotaxis of UCB CD34^+ cells to medium alone (control), SDF-1 low (10 ng/mL) alone and SDF-1 low (10 ng/mL)+uPAR (1 μg/mL) or +ICAM (1 μg/mL) or +VCAM (1 μg/mL) or +FN (2 μg/mL), or +FG (4 μg/mL) or +C3a (1 μg/mL). Data are pooled from quadruplicate samples from three independent experiments. * p<0.00001.
Chemotaxis of CD34^+ cells to medium alone (control), C3a (1 μg/ml), C3adesArg (1 μg/ml), SDF-1 low (10 ng/mL) alone, and SDF-1 low (10 ng/mL)+C3a low (0.1 μg/ml) or SDF-1 low (10 ng/mL)+C3a (1 μg/ml) or SDF-1 low (10 ng/mL)+C3adesArg (1 μg/ml). Data are pooled from quadruplicate samples from three independent experiments.* p<0.00001.
FIG. 13A-B—Chemotaxis of cells to an SDF-1 gradient is lipid raft-dependent. Panel A: Chemotaxis of CD34^+ cells to medium alone (control), SDF-1 (300 ng/mL) and SDF-1 (300 ng/mL) after preincubation for 1 hr with Amphotericin (10 μg/mL) or Nystatin (50 μg/mL). Cells were collected after chemotaxis from the lower chambers and plated in a clonogenic assay. The number of CFU-GM and BFU-E colonies formed by harvested cells is shown as a percentage of control values. Data are pooled from quadruplicate samples from three independent experiments. *p<0.0001. Panel B: Chemotaxis of CD34^+ cells towards medium alone (control), SDF-1 low (10 ng/mL) alone, or SDF-1 low with cells exposed to C3a (1 μg/mL). Cells pretreated before chemotaxis for 1 hr with MβCD (2.5 mM) are shown as gray bars. Data are pooled from quadruplicate samples from three independent experiments. * p<0.00001.
HSPCs from the mPB engraft faster compared to HSPCs aspirated from BM. To test the hypothesis that mPB-derived HSPCs are primed in their responses to SDF-1 by molecules present in SLP, we pooled together SLP from three patients and exposed BM or UCB CD34^+ cells to the SLP during chemotaxis to a low (10 ng/mL) dose of SDF-1.
To address this issue further, the formation of rafts in the cells was perturbed by MβCD, which depletes cholesterol from the cell membrane. The CD34^+ cells were pre-incubated with MβCD for 1 hr. Chemotaxis to a low dose of SDF-1 in the presence of C3a (in the upper chambers) was evaluated.

Another test concerns UCB CD34+ cells. Kind of test: Transwell chemotaxis of UCB CD34+ cells to SDF-1 (priming). Format: cell-based, human. Conditions: for chemotactic response of UCB CD34+ cells to SDF-1: added to lower chambers with SDF-1 10 ng/mL, uPAR, ICAM, VCAM, C3a 1 μg/mL, FN 2 μg/mL, FG 4 μg/mL; for induction of chemotaxis of HSPCs when used alone: without SDF-1. How it is done: as §1
An increased migration of UCB-derived CD34^+ cells, as compared to BM and mPB CD34^+ cells was reported in transwell migration assays was previously reported. However, we noticed large inter-individual differences in the in vitro migratory ability of UCB CD34^+ cells, ranging from 1.1% to 14.3% for spontaneous migration and 3.1% to 62.3% for SDF-1-induced (300 ng/mL) migration. The lower migratory capacity in vitro of UCB-derived CD34^+ cells was not due to lower expression of CXCR4, but likely reflects the decreased migratory behavior of these cells. […] Based on this, we postulate that UCB HSPC responsiveness to an SDF-1 gradient varies with each collected UCB unit and that, in cases when responsiveness is low, UCB HSPCs should be identified and primed before infusion.
Moreover, as SLP contains several components that potentially could prime the responses of CD34^+ cells, (Example 2, FIG. 11, panel B) the most important being PMV and activated complement proteins such as anaphylatoxin C3a, soluble VCAM-1, soluble ICAM-1, uPAR, FG, and FN, we evaluated whether these factors could induce the chemotaxis of HSPCs when used alone. […] We also examined whether FG, FN, soluble VCAM-1, soluble ICAM-1, uPAR, and C3a prime HSPCs in their responses to SDF-1. […] To determine whether this also affects UCB CD34^+ clonogenic progenitors, UCB CD34^+ cells were collected from the lower chambers after the chemotaxis assay and plated in methylcellulose cultures. […] Moreover, a similar effect for the established hematopoietic cell lines Molt 4, Nalm-6, and THP-1 was also found (data not shown).

The subject of a further test is CXCR4. Kind of test: Western blot of CXCR4 in lipid raft membrane fractions of THP-1 cells. Format: cell-based, human. How it is done: FIG. 15A-B—Western blot analysis of the colocalization of CXCR4 in fractions of cell membranes enriched in lipid rafts (fractions 3-5) and depleted of lipid rafts (fractions 9-11). Panel A: Hematopoietic THP-1 cells were stimulated by C3a (1 μg/mL) or desArgC3a (1 μg/mL) or not stimulated (control). CXCR4 was detected in these membrane fractions by Western blot along with ganglioside GM1, a marker of lipid rafts. Experiments were performed three times with similar results. Panel B: In control experiments, cells were pretreated for 1 hr with 10 mM MβCD. A representative study is shown.
Furthermore, direct evidence of the effect of priming agents on CXCR4 incorporation into membrane lipid rafts was obtained from Western blot analysis of CXCR4 expression in various fractions of cell membranes isolated according to their lipid raft content (Example 2, FIG. 15A-B). […] The role of C3a in incorporation of CXCR4 into membrane lipid rafts in UCB cells and involvement of other signaling molecules to this phenomenon will be evaluated in Aim 1.
(In general: A western blot detects proteins with antibodies after separation by electrophoresis.)

“Also recorded” adds a separate entry of the source.

Consider IFN-γ: exogenous rh-IFN-γ, for which the “percentages of IFN-γ-expressing UCB T-cells” value in the test with UCB T-cells is “nearly increased to that measured in adult T-cells”. In addition, in the test on UCB T-cells (mitogen (ConA) stimulation plus exogenous IFN-γ), the “NFAT1 expression and concomitant IFN-γ expression” value is recorded as “strong increases”. Also, in the test with UCB T-cells (treatment with IFN-γ alone), the IFN-γ expression entry was “did not stimulate IFN-γ expression” and the NFAT1 expression result is “only slightly increased”. The “miR-184 expression (qRT-PCR)” value with NFAT1 (CD3/28 primary stimulation) is listed as “marked decrease; also recorded: observed to decrease”. In addition, in the test on NFAT1, the NFAT1 protein expression entry is “increases in NFAT1 protein expression”. The NFAT1 protein expression result with NFAT1 (listed as rh-IFN-γ) was “noted to increase”.

As for “MIP-3alpha: agonist of a membrane receptor that may bind the cationic peptides [reference compound]”, in test [1], the “responsiveness of hematopoietic progenitors to plasma SDF-1 (priming effect)” value was “did not show similar priming effects”.

Take TNF-α: in the test on UCB T-cells, the “percentages of IFN-γ-expressing UCB T-cells” value is “did not result in up-regulation”.

As to “desArgC3a: fragment of C3a where the end arginine residue is cleaved; 76 residues; SEQ ID NO:2”, the “chemotaxis of human CD34+ cells to low-threshold doses of SDF-1” value with CD34+ cells (SDF-1 low 10 ng/mL, C3a or C3adesArg 1 μg/ml) is “potentiate (prime) chemotaxis”. In the test with CD34+ cells (no SDF-1, 1 μg/ml), the “chemoattraction of CD34+ cells by the C3 cleavage fragment on its own” value is “neither C3 cleavage fragments chemoattract”. For the same molecule, in the test on UCB CD34+ cells (UCB-derived CD34+ cells exposed/primed), the “responsiveness of UCB cells to SDF-1 gradient” value was “significantly increase the responsiveness”. Moreover, the “incorporation of Rac-1 into membrane lipid rafts” value with CXCR4 is reported as “increased the incorporation of Rac-1”. Further, the “incorporation of CXCR4 into GM1-enriched membrane lipid rafts (fractions 3-5)” value with CXCR4 (1 μg/mL) was “stimulates incorporation of CXCR4”.

B1: soluble VCAM-1: soluble VCAM-1, component of SLP (protein, UniProt P19320 25-698, looked up)
extracellular domain: FKIETTPESRYLAQIGDSVSLTCSTTGCESPFFSWRTQIDSPLNGKVTNEGTTSTLTMNPVSFGNEHSYLCTATCESRKLEKGIQVEIYSFPKDPEIHLSGPLEAGKPITVKCSVADVYPFDRLEIDLLKGDHLMKSQEFLEDADRKSLETKSLEVTFTPVIEDIGKVLVCRAKLHIDEMDSVPTVRQAVKELQVYISPKNTVISVNPSTKLQEGGSVTMTCSSEGLPAPEIFWSKKLDNGNLQHLSGNATLTLIAMRMEDSGIYVCEGVNLIGKNRKEVELIVQEKPFTVEISPGPRIAAQIGDSVMLTCSVMGCESPSFSWRTQIDSPLSGKVRSEGTNSTLTLSPVSFENEHSYLCTVTCGHKKLEKGIQVELYSFPRDPEIEMSGGLVNGSSVTVSCKVPSVYPLDRLEIELLKGETILENIEFLEDTDMKSLENKSLEMTFIPTIEDTGKALVCQAKLHIDDMEFEPKQRQSTQTLYVNVAPRDTTVLVSPSSILEEGSSVNMTCLSQGFPAPKILWSRQLPNGELQPLSENATLTLISTKMEDSGVYLCEGINQAGRSRKEVELIIQVTPKDIKLTAFPSESVKEGDTVIISCTCGNVPETWIILKKKAETGDTVLKSIDGAYTIRKAQLKDAGVYECESKNKVGSQLRSLTLDVQGRENNKDYFSPE
modifications: extracellular domain
notes: soluble VCAM-1, component of SLP
B1: in the test on UCB CD34+ cells, the “chemotactic response of UCB CD34+ cells to SDF-1” value is recorded as “increased the chemotactic response” and the “induction of chemotaxis of HSPCs when used alone” value is reported as “no evidence that they did”.

B2: soluble ICAM-1: soluble ICAM-1, component of SLP (protein, UniProt P05362 28-480, looked up)
extracellular domain: QTSVSPSKVILPRGGSVLVTCSTSCDQPKLLGIETPLPKKELLLPGNNRKVYELSNVQEDSQPMCYSNCPDGQSTAKTFLTVYWTPERVELAPLPSWQPVGKNLTLRCQVEGGAPRANLTVVLLRGEKELKREPAVGEPAEVTTTVLVRRDHHGANFSCRTELDLRPQGLELFENTSAPYQLQTFVLPATPPQLVSPRVLEVDTQGTVVCSLDGLFPVSEAQVHLALGDQRLNPTVTYGNDSFSAKASVSVTAEDEGTQRLTCAVILGNQSQETLQTVTIYSFPAPNVILTKPEVSEGTEVTVKCEAHPRAKVTLNGVPAQPLGPRAQLLLKATPEDNGRSFSCSATLEVAGQLIHKNQTRELRVLYGPRLDERDCPGNWTWPENSQQTPMCQAWGNPLPELKCLKDGTFPLPIGESVTVTRDLEGTYLCRARSTQGEVTRKVTVNVLSPRYE
modifications: extracellular domain
notes: soluble ICAM-1, component of SLP
For B2, in the test on UCB CD34+ cells, the “chemotactic response of UCB CD34+ cells to SDF-1” value is “increased the chemotactic response” and the “induction of chemotaxis of HSPCs when used alone” value is reported as “no evidence that they did”.
